Patent US20210101874A1, “MICROBIOCIDAL OXADIAZOLE DERIVATIVES” (SYNGENTA PARTICIPATIONS AG, priority 2017, published 2021)

How the values were obtained:
[1] = tested on: Puccinia recondita f. sp. Tritici; experiment: Puccinia recondita f. sp. tritici / wheat / leaf disc preventative (brown rust); type: in vivo; settings: foliar, 200 ppm in the applied formulation, wheat leaf segments cv. Kanzler, inoculated 1 day after application, compared to untreated, assessed 7 to 9 days after application, read-out: disease control
Procedure: Leaf disks or leaf segments of various plant species are cut from plants grown in a greenhouse. The cut leaf disks or segments are placed in multiwell plates (24-well format) onto water agar. The leaf disks are sprayed with a test solution before (preventative) or after (curative) inoculation. Compounds to be tested are prepared as DMSO solutions (max. 10 mg/ml) which are diluted to the appropriate concentration with 0.025% Tween20 just before spraying. The inoculated leaf disks or segments are incubated under defined conditions (temperature, relative humidity, light, etc.) according to the respective test system. A single evaluation of disease level is carried out 3 to 14 days after inoculation, depending on the pathosystem. Percent disease control relative to the untreated check leaf disks or segments is then calculated. Wheat leaf segments cv. Kanzler were placed on agar in multiwell plates (24-well format) and sprayed with the formulated test compound diluted in water. The leaf disks were inoculated with a spore suspension of the fungus 1 day after application. The inoculated leaf segments were incubated at 19° C. and 75% relative humidity (rh) under a light regime of 12 hours light/12 hours darkness in a climate cabinet and the activity of a compound was assessed as percent disease control compared to untreated when an appropriate level of disease damage appears in untreated check leaf segments (7 to 9 days after application). The following compounds at 200 ppm in the applied formulation give at least 80% disease control in this test when compared to untreated control leaf disks under the same conditions, which show extensive disease development.

[2] = tested on: Puccinia recondita f. sp. Tritici; experiment: Puccinia recondita f. sp. tritici / wheat / leaf disc curative (brown rust); type: in vivo; settings: foliar, 200 ppm in the applied formulation, wheat leaf segments cv. Kanzler, applied 1 day after inoculation, compared to untreated, assessed 6 to 8 days after application, read-out: disease control
Procedure: Leaf disks or leaf segments of various plant species are cut from plants grown in a greenhouse. The cut leaf disks or segments are placed in multiwell plates (24-well format) onto water agar. The leaf disks are sprayed with a test solution before (preventative) or after (curative) inoculation. Compounds to be tested are prepared as DMSO solutions (max. 10 mg/ml) which are diluted to the appropriate concentration with 0.025% Tween20 just before spraying. The inoculated leaf disks or segments are incubated under defined conditions (temperature, relative humidity, light, etc.) according to the respective test system. A single evaluation of disease level is carried out 3 to 14 days after inoculation, depending on the pathosystem. Percent disease control relative to the untreated check leaf disks or segments is then calculated.
Wheat leaf segments cv. Kanzler are placed on agar in multiwell plates (24-well format). The leaf segments are then inoculated with a spore suspension of the fungus. Plates were stored in darkness at 19° C. and 75% relative humidity. The formulated test compound diluted in water was applied 1 day after inoculation. The leaf segments were incubated at 19° C. and 75% relative humidity under a light regime of 12 hours light/12 hours darkness in a climate cabinet and the activity of a compound was assessed as percent disease control compared to untreated when an appropriate level of disease damage appears in untreated check leaf segments (6 to 8 days after application).
The following compounds at 200 ppm in the applied formulation give at least 80% disease control in this test when compared to untreated control leaf disks under the same conditions, which show extensive disease development.

[3] = tested on: Glomerella lagenarium (Colletotrichum lagenarium); experiment: Glomerella lagenarium (Colletotrichum lagenarium) liquid culture / cucumber / preventative (anthracnose); type: cell-based; settings: Colletotrichum orbiculare; 20 ppm in the applied formulation; conidia in PDB nutrient broth, 24° C.; 3 to 4 days after application; compared to untreated; read-out: disease control (inhibition of growth measured photometrically)
Procedure: Mycelia fragments or conidia suspensions of a fungus prepared either freshly from liquid cultures of the fungus or from cryogenic storage, are directly mixed into nutrient broth. DMSO solutions of the test compound (max. 10 mg/ml) are diluted with 0.025% Tween20 by a factor of 50 and 10 µl of this solution is pipetted into a microtiter plate (96-well format). The nutrient broth containing the fungal spores/mycelia fragments is then added to give an end concentration of the tested compound. The test plates are incubated in the dark at 24° C. and 96% relative humidity. The inhibition of fungal growth is determined photometrically after 2 to 7 days, depending on the pathosystem, and percent antifungal activity relative to the untreated check is calculated. Conidia of the fungus from cryogenic storage are directly mixed into nutrient broth (PDB—potato dextrose broth). After placing a (DMSO) solution of test compound into a microtiter plate (96-well format), the nutrient broth containing the fungal spores is added. The test plates are incubated at 24° C. and the inhibition of growth is measured photometrically 3 to 4 days after application. The following compounds at 20 ppm in the applied formulation give at least 80% disease control in this test when compared to untreated control under the same conditions, which show extensive disease development.

SMILES | pest or weed control at 200 ppm [1] [%] | pest or weed control at 200 ppm [2] [%] | inhibition at 20 ppm [3] [%]
C#CCNS(=O)(=O)N(C)Cc1ccc(-c2noc(C(F)(F)F)n2)cc1 [Compound 1.19, 3-[4-[[methyl(prop-2-ynylsulfamoyl)amino]methyl]phenyl]-5-(trifluoromethyl)-1,2,4-oxadiazole] | ≥ 80 | ≥ 80 | ≥ 80
C#CCNS(=O)(=O)N(Cc1ccc(-c2noc(C(F)(F)F)n2)cc1)C1CC1 [Compound 1.20, 3-[4-[[cyclopropyl(prop-2-ynylsulfamoyl)amino]methyl]phenyl]-5-(trifluoromethyl)-1,2,4-oxadiazole] | – | ≥ 80 | ≥ 80
CCCS(=O)(=O)N(C)Cc1ccc(-c2noc(C(F)(F)F)n2)cc1 [Compound 1.25, N-methyl-N-[[4-[5-(trifluoromethyl)-1,2,4-oxadiazol-3-yl]phenyl]methyl] propane-1-sulfonamide] | ≥ 80 | ≥ 80 | ≥ 80
CCN(Cc1ccc(-c2noc(C(F)(F)F)n2)cc1)S(=O)(=O)c1ccn(C)n1 [Compound 1.29, N-ethyl-1-methyl-N-[[4-[5-(trifluoromethyl)-1,2,4-oxadiazol-3-yl]phenyl]methyl] pyrazole-3-sulfonamide] | ≥ 80 | ≥ 80 | ≥ 80
CCN(Cc1ccc(-c2noc(C(F)(F)F)n2)cc1)S(=O)(=O)C1CC1 [Compound 1.33, N-ethyl-N-[[4-[5-(trifluoromethyl)-1,2,4-oxadiazol-3-yl]phenyl]methyl] cyclopropanesulfonamide] | ≥ 80 | ≥ 80 | ≥ 80
C=CCS(=O)(=O)N(CC)Cc1ccc(-c2noc(C(F)(F)F)n2)cc1 [Compound 1.34, N-ethyl-N-[[4-[5-(trifluoromethyl)-1,2,4-oxadiazol-3-yl]phenyl]methyl] prop-2-ene-1-sulfonamide] | ≥ 80 | ≥ 80 | ≥ 80
CCN(Cc1ccc(-c2noc(C(F)(F)F)n2)cc1)S(=O)(=O)CC1CCOC1 (centres unmarked) [Compound 1.35, N-ethyl-1-tetrahydrofuran-3-yl-N-[[4-[5-(trifluoromethyl)-1,2,4-oxadiazol-3-yl]phenyl]methyl] methanesulfonamide] | ≥ 80 | ≥ 80 | ≥ 80
CCN(Cc1ccc(-c2noc(C(F)(F)F)n2)cc1)S(=O)(=O)CCOC [Compound 1.37, N-ethyl-2-methoxy-N-[[4-[5-(trifluoromethyl)-1,2,4-oxadiazol-3-yl]phenyl]methyl] ethanesulfonamide] | ≥ 80 | ≥ 80 | ≥ 80
C/C=C/S(=O)(=O)N(CC)Cc1ccc(-c2noc(C(F)(F)F)n2)cc1 [Compound 1.39, (E)-N-ethyl-N-[[4-[5-(trifluoromethyl)-1,2,4-oxadiazol-3-yl]phenyl]methyl] prop-1-ene-1-sulfonamide] | ≥ 80 | ≥ 80 | ≥ 80
CN(Cc1ccc(-c2noc(C(F)(F)F)n2)cc1)S(=O)(=O)c1ccn(C)n1 [Compound 1.41, N,1-dimethyl-N-[[4-[5-(trifluoromethyl)-1,2,4-oxadiazol-3-yl]phenyl]methyl] pyrazole-3-sulfonamide] | ≥ 80 | ≥ 80 | ≥ 80
C=CCS(=O)(=O)N(C)Cc1ccc(-c2noc(C(F)(F)F)n2)cc1 [Compound 1.46, N-methyl-N-[[4-[5-(trifluoromethyl)-1,2,4-oxadiazol-3-yl]phenyl]methyl] prop-2-ene-1-sulfonamide] | ≥ 80 | ≥ 80 | ≥ 80
CN(Cc1ccc(-c2noc(C(F)(F)F)n2)cc1)S(=O)(=O)CC1CCOC1 (centres unmarked) [Compound 1.47, N-methyl-1-tetrahydrofuran-3-yl-N-[[4-[5-(trifluoromethyl)-1,2,4-oxadiazol-3-yl]phenyl]methyl] methanesulfonamide] | ≥ 80 | ≥ 80 | ≥ 80
COCCS(=O)(=O)N(C)Cc1ccc(-c2noc(C(F)(F)F)n2)cc1 [Compound 1.49, 2-methoxy-N-methyl-N-[[4-[5-(trifluoromethyl)-1,2,4-oxadiazol-3-yl]phenyl]methyl] ethanesulfonamide] | ≥ 80 | ≥ 80 | ≥ 80
C/C=C/S(=O)(=O)N(C)Cc1ccc(-c2noc(C(F)(F)F)n2)cc1 [Compound 1.51, (E)-N-methyl-N-[[4-(5-(trifluoromethyl)-1,2,4-oxadiazol-3-yl]phenyl]methyl] prop-1-ene-1-sulfonamide] | ≥ 80 | ≥ 80 | ≥ 80
CN(Cc1ccc(-c2noc(C(F)(F)F)n2)cc1)S(=O)(=O)CC1CC1 [Compound 1.52, 1-cyclopropyl-N-methyl-N-[[4-[5-(trifluoromethyl)-1,2,4-oxadiazol-3-yl]phenyl]methyl] methanesulfonamide] | ≥ 80 | ≥ 80 | ≥ 80
C=CCS(=O)(=O)N(CCC)Cc1ccc(-c2noc(C(F)(F)F)n2)cc1 [Compound 1.70, N-propyl-N-[[4-[5-(trifluoromethyl)-1,2,4-oxadiazol-3-yl]phenyl]methyl] prop-2-ene-1-sulfonamide] | – | ≥ 80 | ≥ 80
CCCN(Cc1ccc(-c2noc(C(F)(F)F)n2)cc1)S(=O)(=O)N(C)C [Compound 1.81, N-(dimethylsulfamoyl)-N-[[4-[5-(trifluoromethyl)-1,2,4-oxadiazol-3-yl]phenyl]methyl] propan-1-amine] | – | ≥ 80 | ≥ 80
CC(C)S(=O)(=O)NCc1ccc(-c2noc(C(F)(F)F)n2)cc1F [Compound 2.21, N-[[2-fluoro-4-[5-(trifluoromethyl)-1,2,4-oxadiazol-3-yl]phenyl]methyl] propane-2-sulfonamide] | – | ≥ 80 | –
O=S(=O)(NCc1ccc(-c2noc(C(F)(F)F)n2)cc1)N1CCCC1 [Compound 3.13, N-[[4-[5-(trifluoromethyl)-1,2,4-oxadiazol-3-yl]phenyl]methyl] pyrrolidine-1-sulfonamide] | ≥ 80 | – | ≥ 80
O=S(=O)(CC1CC1(Cl)Cl)NCc1ccc(-c2noc(C(F)(F)F)n2)c(F)c1 (centres unmarked) [Compound 3.16, 1-(2,2-dichlorocyclopropyl)-N-[[3-fluoro-4-[5-(trifluoromethyl)-1,2,4-oxadiazol-3-yl]phenyl]methyl] methanesulfonamide] | ≥ 80 | – | ≥ 80
